This note sets out measurements from article PMC12091848, “Structural Insights Into Galectin‐3 Recognition of a Selenoglycomimetic” (Chemmedchem, 2025).

For this assay, the target named is T1, Galectin-3 (Gal-3) (Homo sapiens, UniProt P17931).
T1 construct: gene LGALS3
Kind of assay: biochemical.

T1 sequence (P17931 114-250 limits assumed): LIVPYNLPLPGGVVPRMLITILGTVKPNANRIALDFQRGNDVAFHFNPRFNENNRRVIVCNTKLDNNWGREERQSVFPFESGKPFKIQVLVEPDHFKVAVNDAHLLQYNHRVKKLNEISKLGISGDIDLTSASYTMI

Consider `OC[C@H]1O[C@@H]([Se][C@@H]2O[C@H](CO)[C@H](O)[C@H](O)[C@H]2O)[C@H](O)[C@@H](O)[C@H]1O` [SeDG, di(β‐D‐galactopyranosyl)selenide], for which the Kd (as a rule, the constant that tells how readily two partners part at equilibrium) was 149 ± 30 µM.
